Experimental data from patent US7342092B2, “Cancer antigen peptide formulations” (International Institute of Cancer Immunology, Inc., priority 2002, dated 2008).
Where no end group is shown, it is not given here.

Legend:
[1] = tested on: cancer patient two suffered from acute myeloblastic leukemia (AML-M1) transformed from Myelodysplastic Syndromes (MDS); assay: Leukocyte number and bone marrow leukemic blasts in the leukemia patient, Example 3; type: in vivo, human
Method: The present example illustrates the case of the cancer patient two suffered from acute myeloblastic leukemia (AML-M1) transformed from Myelodysplastic Syndromes (MDS), who was administered with the WT1 peptide vaccine. The WT1 peptide used in this example was altered type WT1 peptide: Cys Tyr Thr Trp Asn Gln Met Asn Leu (SEQ ID NO: 3) synthesized by MPS Inc. (U.S.) with GMP grade. In a similar manner to Example 1, the peptide was mixed with MONTANIDE ISA (registered trademark) 51 to provide a water-in-oil emulsion, and the emulsion was injected intradermally at the upper arm of the patient. Leukemic blasts occupied 50% of the bone marrow two days before the administration, while the total number of leukocytes was 1500/μl on the day before the administration. Two days after the administration, the total number of leukocytes was decreased to 700/μl, and the leukemic blasts of the bone marrow reduced to 27%. When a hemopoietic factor, G-CSF, was administered to the patient in the light of the decreased total number of leukocytes, the total number recovered to 2150/μl, and the leukemic blasts of the bone marrow was 11% seven days after the administration.

[2] = tested on: CTLs reactive to the wild type WT1 peptide-presenting HLA-A*2402 molecule; assay: HLA tetramer method, CTLs reactive to wild type WT1 peptide-presenting HLA-A*2402, Example 3; type: in vivo, human; settings: two days after the administration; 1.1% three days before the administration
Method: Subsequently, the number of cytotoxic T cells (CTLs) reactive to the wild type WT1 peptide-presenting HLA-A*2402 molecule in the same patient was determined by an HLA tetramer method. The HLA-A*2402 tetramer was prepared using the wild type WT1 peptide according to the method described in Int. J. Cancer 100, 565-570 (2002). On a flow cytometer, FACS, the cells were stained with the two colors of PE-labeled HLA-A*2402 tetramer and FITC-labeled CD8 antibody, and the double-positive cells were assigned to CTLs recognizing the wild type WT1 peptide, i.e., CTLs reactive to WT1-positive cancer cells. CTL frequency three days before the administration of the peptide was 1.1%, whereas the frequency was increased to 8.8% two days after the administration.

[3] = tested on: lung cancer patient two with metastasis at stage IV; assay: Change in blood tumor marker levels in the lung cancer patient two, Example 2; type: in vivo, human
Method: The present example illustrates the case of the lung cancer patient two with metastasis at stage IV, who was administered with the WT1 peptide vaccine. In a similar manner to Example 1, a solution of wild type WT1 peptide (SEQ ID NO: 2) was mixed with Montanide ISA (registered trademark) 51 to provide a water-in-oil emulsion each just before the administration wherein the emulsion was injected intradermally at the upper arm of the patient totally six times, i.d. on day 0, 14, 28, 42, 56, and 71 wherein day 0 represents the day when the first administration was conducted.
The levels of tumor markers, CEA and SLX, were determined in a similar manner to Example 1, and the level of CYFRA (cytokeratin 19 fragments) was determined using Elecsys CYFRA produced by Roche.

[4] = tested on: peripheral blood mononuclear cells (PBMC); assay: ELISPOT of IFN-γ producing T cells in PBMC, Example 1; type: cell-based, human; settings: PBMC receiving the peptide in comparison with PBMC not receiving the peptide

With CYTWNQMNL [altered type WT1 peptide] the “leukemic blasts of the bone marrow” value ([1]; seven days after the administration, G-CSF also given) was 11%, the “leukemic blasts of the bone marrow” value ([1]; two days after the administration, 50% two days before the administration) was 27% and the conditions of leukemia ([1]; water-in-oil emulsion, overall conclusion of Example 3) was “improved the conditions of leukemia with decreased ratio of the leukemic blasts in the bone marrow”. The “CTL frequency (HLA-A*2402 tetramer and CD8 double-positive cells)” value [2] was 8.8%.

With CMTWNQMNL [wild type WT1 peptide] the “level of SLX in blood” value ([3]; on and after the 2nd administration, before administration 50 U/ml, upper limit of normal 38 U/ml, FIG. 2) was “decreased to reach the normal level”, the “level of CEA in blood” value ([3]; on and after the 2nd administration, before administration higher than upper limit of normal 5 ng/ml, FIG. 2) was “decreased” and the “level of CYFRA in blood” value ([3]; on and after the 3rd administration, below the upper limit of normal level, FIG. 2) was < 2 ng/mL. The “development of the tumor” value ([3]; water-in-oil emulsion, overall conclusion of Example 2) was “suppressed the development of the tumor” and the “T cells producing IFN-γ in response to specifically the peptide (ELISPOT)” value [4] was “found to be more”.
